For data set [1], the system named is MAO-A. More on the design: method as in doi:10.1016/0223-5234(88)90141-9. As to conditions: Figure 1; cited from earlier work.
In data set [2] the test system is MAO-B. More on the design: method as in doi:10.1016/0223-5234(88)90141-9. The note with it: Figure 1; cited from earlier work.
Data set [3] has as its target T1, MAO-A (Homo sapiens, UniProt P21397).
T1 construct: purchased Merck
T1 sequence (P21397 1-527): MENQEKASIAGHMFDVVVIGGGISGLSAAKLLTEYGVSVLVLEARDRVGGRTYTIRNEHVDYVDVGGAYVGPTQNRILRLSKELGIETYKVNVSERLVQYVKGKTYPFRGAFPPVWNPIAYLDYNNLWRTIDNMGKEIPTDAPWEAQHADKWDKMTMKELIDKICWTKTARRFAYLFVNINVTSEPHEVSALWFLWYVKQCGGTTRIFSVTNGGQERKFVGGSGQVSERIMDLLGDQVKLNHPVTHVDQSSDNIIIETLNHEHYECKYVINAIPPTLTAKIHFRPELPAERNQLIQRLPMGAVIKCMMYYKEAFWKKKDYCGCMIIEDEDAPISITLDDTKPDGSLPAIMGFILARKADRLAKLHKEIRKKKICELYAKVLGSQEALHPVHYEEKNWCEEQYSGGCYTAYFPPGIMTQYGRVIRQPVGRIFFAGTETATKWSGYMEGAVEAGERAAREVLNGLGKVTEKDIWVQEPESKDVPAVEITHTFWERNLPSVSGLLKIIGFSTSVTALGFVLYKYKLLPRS
Description: MAO-A inhibition, recombinant human enzyme, kynuramine substrate, fluorometric end-point. It counts as biochemical. As to conditions: mean ± SD of triplicate, racemic mixtures, NI = no inhibition at 100 µM. On the procedure:
(§1) The in vitro inhibition studies were carried out according to the published procedure, and the inhibition potencies were expressed as the IC50 values (Figure 2). […] A variety of C3 substituents were explored in this study, which included the phenyl, benzyl and 5-methylthiophen-2-yl moieties, while different substituents on the phenyl (e.g., CH3, OCH3, Cl, Br, F, CF3, OCF3, NO2, PhO) were considered.
(§2) The inhibition potencies of the 1,2,4-oxadiazin-5(6H)-one derivatives were determined using commercially available recombinant human MAO-A and MAO-B (Merck) according to the published procedure. Stock solutions of all compounds were prepared in DMSO and added to the enzyme reactions to yield a final concentration of 4% DMSO. […] Kynuramine was used as enzyme substrate for both MAO isoforms and was oxidized to ultimately form 4-hydroxyquinoline, which is a fluorescent metabolite. The concentrations of 4-hydroxyquinoline in the reactions were measured at end-point by fluorescence spectrometry (λex = 310 nm; λem = 400 nm). Using this approach, the rates of kynuramine oxidation by MAO were measured in the presence of different concentrations of the test inhibitors (0.003–100 µM) as well as in the absence of inhibitor. […] IC50 values were estimated from these plots and were reported as the mean ± SD of triplicate determinations.

For data set [4], the target named is T2, MAO-B (Homo sapiens, UniProt P27338).
T2 construct: purchased Merck
T2 sequence (P27338 1-520): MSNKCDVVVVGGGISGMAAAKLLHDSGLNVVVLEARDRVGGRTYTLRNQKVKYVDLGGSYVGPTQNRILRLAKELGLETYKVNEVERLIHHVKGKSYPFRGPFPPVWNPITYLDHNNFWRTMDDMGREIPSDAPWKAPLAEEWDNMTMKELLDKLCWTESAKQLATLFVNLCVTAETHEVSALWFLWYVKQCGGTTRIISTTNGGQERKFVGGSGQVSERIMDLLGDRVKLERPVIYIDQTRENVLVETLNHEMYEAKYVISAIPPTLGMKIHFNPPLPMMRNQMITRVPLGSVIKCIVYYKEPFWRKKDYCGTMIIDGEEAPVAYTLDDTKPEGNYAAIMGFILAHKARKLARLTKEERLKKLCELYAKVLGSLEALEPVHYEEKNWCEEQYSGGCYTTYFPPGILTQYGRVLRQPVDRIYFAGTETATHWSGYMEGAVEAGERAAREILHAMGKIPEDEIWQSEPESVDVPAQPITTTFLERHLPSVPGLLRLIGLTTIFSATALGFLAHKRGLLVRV
Briefly: MAO-B inhibition, recombinant human enzyme, kynuramine substrate, fluorometric end-point. The note with it: mean ± SD of triplicate, racemic mixtures, NI = no inhibition at 100 µM. It counts as biochemical. How it is done: as §1, §2

Data set [5] deals with T1, MAO-A. Briefly: Mode of MAO-A inhibition, Lineweaver-Burk plots. It counts as biochemical. On the procedure: (§3) To investigate the mode of MAO inhibition, Lineweaver–Burk plots were constructed for the two inhibitors of the respective MAO isoforms, 3f and 5f. For each inhibitor, six plots were constructed using a range of eight substrate concentrations (15–250 µM) for each plot. The inhibitor concentrations were selected to bracket the IC50 values. […] For each isoform, a plot was also constructed in the absence of the inhibitor.
(§4) To investigate the mode of inhibition, Lineweaver–Burk plots were constructed. A set of six plots were constructed for each test inhibitor using five inhibitor concentrations that bracketed the IC50 value as well as one plot in the absence of inhibitor. For each line, eight different concentrations of kynuramine (15–250 µM) were used. Subsequently, the slopes of the Lineweaver–Burk plots were plotted versus inhibitor concentration, and the Ki values were estimated from the x-intercept (Ki = −x-intercept).

In data set [6] the target is T2, MAO-B. Briefly: Mode of MAO-B inhibition, Lineweaver-Burk plots. In kind it is biochemical. On the procedure:
as §3, §4

Data on 4 compounds can be found in publication PMC11643077, “Synthesis of 1,2,4-Oxadiazin-5(6H)-One Derivatives and Their Biological Investigation as Monoamine Oxidase Inhibitors” (Molecules, 2024).

Structures are written as SMILES. Some results are limits rather than exact numbers.

A word on the IC50: it is the concentration needed to halve the response being measured. Turning to `N#CCCN1N=C(c2ccc(-c3ccccc3)cc2)OCC1=O` [A, 2-(4-Biphenylyl)-4-(2-cyanoethyl)-4H-1,3,4-oxadiazin-5(6H)-one], the IC50 is 32 µM with MAO-A [1] and 0.63 µM in the data set with MAO-B [2].

Broadly, the Ki is a dissociation constant, usually derived from enzyme kinetics or from competition with a known ligand. Higher therefore signals a looser hold on the target. In the case of `COc1ccc(Oc2ccc(C3=NOCC(=O)N3)cc2)cc1` [Compound 3f, 3-(4-(4-Methoxyphenoxy)phenyl)-4H-1,2,4-oxadiazin-5(6H)-one], the values for the 50% inhibitory concentration (IC50) on MAO-A [3] and at MAO-B [4] were 3.75 ± 0.212 µM and 3.98 ± 0.518 µM, respectively. Also, on MAO-A [5] (Lineweaver-Burk plots), the “mode of MAO-A inhibition” value is recorded as “competitive inhibition”. At MAO-A [5] (from replot of Lineweaver-Burk slopes versus inhibitor concentration (1 to 5 µM), kynuramine 15–250 µM), this compound came in with a Ki of 1.3 µM.

As a reminder, the melting point is the temperature of the solid-liquid transition. Turning to `CCC1ON=C(c2ccc(Oc3ccc(OC)cc3)cc2)NC1=O` (centres unmarked) [Compound 5f, 6-Ethyl-3-(4-(4-methoxyphenoxy)phenyl)-4H-1,2,4-oxadiazin-5(6H)-one], the melting point is 117 to 119 °C. Also, at MAO-A [3], the IC50 amounted to 15.4 ± 1.98 µM. For the same compound, the IC50 on MAO-B [4] turned out to be 0.9 ± 0.05 µM. The “mode of MAO-B inhibition” value on MAO-B [6] (Lineweaver-Burk plots) is on record as “competitive inhibition”. Further, the Ki at MAO-B [6] (from replot of Lineweaver-Burk slopes versus inhibitor concentration (0.25 to 1.25 µM), kynuramine 15–250 µM) came out at 0.35 µM.

In turn, `O=C(O)CC1ON=C(c2ccc(OC(F)(F)F)cc2)NC1=O` (centres unmarked) [Compound 8g, 2-(5-Oxo-3-(4-(trifluoromethoxy)phenyl)-5,6-dihydro-4H-1,2,4-oxadiazin-6-yl)acetic acid] had a melting point of 208 to 211 °C. Also, the IC50 on MAO-A [3] is > 100 µM. The IC50 at MAO-B [4] is > 100 µM.
